Test results taken from ChEMBL document CHEMBL1201862, “PubChem BioAssay data set” (2004).
Blank lines part the entries; values can stand above or below the molecule they belong to. Activity calls are given as the source filed them.

How the values were obtained:
[1] = biological target: T1, G-protein coupled receptor 35 (Homo sapiens, UniProt Q9HC97); assay: SAR Analysis for the identification of Selective Antagonists of ERK1/2 Activity in GPR35-Overexpressing U2OS Cells - Set 2. [Related pubchem assays (depositor defined):AID2058, AID2079]; assay type: functional, cell-based
[2] = biological target: T1, G-protein coupled receptor 35; assay: SAR analysis of Antagonists of the GPR35 Receptor using an Image-Based Assay - Set 5. [Related pubchem assays (depositor defined):AID2058, AID2079]; assay type: functional
[3] = biological target: G-protein coupled receptor 55 (Homo sapiens, UniProt Q9Y2T6); assay: SAR Analysis of Selective Antagonists of GPR55 using an Image-Based Assay - Set 3. [Related pubchem assays (depositor defined):AID2058, AID2079]; assay type: functional
[4] = biological target: T2, Kappa-type opioid receptor (Homo sapiens, UniProt P41145); assay: SAR analysis of small molecule antagonists of the kappa opioid receptor via a luminescent beta-arrestin assay - Set 3. [Related pubchem assays (depositor defined):AID1777, AID1778, AID1785, AID1786, AID1966, AID2133, AID2136, AID2285, AID2495]; assay type: functional
[5] = biological target: Delta-type opioid receptor (Homo sapiens, UniProt P41143); assay: SAR Analysis of Antagonists of the DOR Receptor using an Image-Based Assay - Set 3. [Related pubchem assays (depositor defined):AID1777, AID1785]; assay type: functional;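 note: U2OS cells expressing DOR1 and beta-arrestin GFP stimulated with 100 nM SNC80; imaging of GFP-tagged beta-arrestin moving into spots after receptor activation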
Mu-type opioid receptor = Mu-type opioid receptor (Homo sapiens, UniProt P35372); assay: SAR Analysis of Antagonists of the MOR Receptor using an Image-Based Assay - Set 3. [Related pubchem assays (depositor defined):AID1777, AID1785, AID1786, AID1966, AID2133, AID2136, AID2284, AID2285, AID2420]; assay type: functional
[6] = biological target: T2, Kappa-type opioid receptor; assay: SAR analysis of Antagonists of the Kappa Opioid Receptor (KOR) using an Image-Based Assay - Set 3. [Related pubchem assays (depositor defined):AID1777, AID1785]; assay type: functional
[7] = biological target: T2, Kappa-type opioid receptor; assay type: functional
[8] = biological target: T2, Kappa-type opioid receptor; assay type: functional; remark: listed apart in the source
Beta Lactamase = Beta Lactamase (Pseudomonas aeruginosa, UniProt Q932Y6); assay: beta-lactamase reporter inhibitor potency, dose response, artefact control for TLR9-MyD88 binding inhibitor project, BLA reporter cells, FRET fluorescence (AID 588341); assay type: cell-based;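 note: cell based assay in CHO-K1 cells stably expressing beta-lactamase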
[9] = Fluorescence-based cell-based high throughput dose response assay for inhibitors of the interaction of nucleotide-binding oligomerization domain containing 2 (NOD2) and the receptor-interacting serine-threonine kinase 2 (RIPK2).; assay type: functional; conditions: Homo sapiens
Aminopeptidase N = biological target: T3, Aminopeptidase N (Plasmodium falciparum FcB1/Columbia, UniProt O96935); assay: P. falciparum M1AAP inhibitors, biochemical, fluorogenic H-Leu-NHMec substrate, 1536-well (AID 1445); parameters: species or system Plasmodium falciparum 3D7, 3D7
T3 sequence (O96935 whole entry): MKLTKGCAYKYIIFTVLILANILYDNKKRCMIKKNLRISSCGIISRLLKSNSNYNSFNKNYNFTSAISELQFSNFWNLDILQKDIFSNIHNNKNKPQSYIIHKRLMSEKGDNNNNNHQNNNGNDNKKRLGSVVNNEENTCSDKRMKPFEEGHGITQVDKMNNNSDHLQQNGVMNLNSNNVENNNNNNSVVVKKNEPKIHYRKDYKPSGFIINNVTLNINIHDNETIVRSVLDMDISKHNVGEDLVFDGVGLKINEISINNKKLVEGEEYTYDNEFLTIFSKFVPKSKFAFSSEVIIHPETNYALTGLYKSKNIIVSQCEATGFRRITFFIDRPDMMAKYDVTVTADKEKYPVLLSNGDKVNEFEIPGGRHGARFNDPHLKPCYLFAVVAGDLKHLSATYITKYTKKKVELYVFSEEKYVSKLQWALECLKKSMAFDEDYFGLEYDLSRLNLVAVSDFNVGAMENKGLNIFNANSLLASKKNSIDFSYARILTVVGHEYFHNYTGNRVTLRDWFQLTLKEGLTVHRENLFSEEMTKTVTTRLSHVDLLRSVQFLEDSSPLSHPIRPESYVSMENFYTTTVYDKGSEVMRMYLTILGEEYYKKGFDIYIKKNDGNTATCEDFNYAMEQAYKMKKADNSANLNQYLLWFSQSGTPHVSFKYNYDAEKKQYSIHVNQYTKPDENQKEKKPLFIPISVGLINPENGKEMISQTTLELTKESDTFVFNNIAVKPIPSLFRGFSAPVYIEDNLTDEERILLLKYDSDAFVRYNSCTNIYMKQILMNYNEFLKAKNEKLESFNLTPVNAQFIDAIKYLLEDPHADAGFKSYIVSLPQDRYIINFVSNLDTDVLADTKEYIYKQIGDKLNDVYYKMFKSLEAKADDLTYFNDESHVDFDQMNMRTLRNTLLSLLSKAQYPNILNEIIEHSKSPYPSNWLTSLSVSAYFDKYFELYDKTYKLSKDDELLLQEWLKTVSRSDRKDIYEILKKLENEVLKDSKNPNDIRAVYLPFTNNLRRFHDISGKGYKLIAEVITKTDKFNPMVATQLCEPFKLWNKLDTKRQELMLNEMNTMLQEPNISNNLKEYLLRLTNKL

INS1 = assay: beta cell apoptosis inhibitors, cytokine rescue, dose response, luminescence, retest (AID 449756); assay type: functional, cell-based; conditions: Rattus norvegicus;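 note: cell death triggered by IL-1 beta plus TNF-alpha plus IFN-gamma mixture; protective hits raise ATP signal compared with cytokine alone wells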
[10] = biological target: Dual specificity tyrosine-phosphorylation-regulated kinase 1A (Rattus norvegicus, UniProt Q63470); assay type: biochemical, Homo sapiens
CHO = assay: cytotoxicity in TLR9-MyD88 CHO cells, dose response, cytotoxicity control for TLR9-MyD88 binding inhibitor project, cell-based, luminescence (AID 588339); assay type: functional, hamster; conditions: Cricetulus griseus;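 note: CHO cells stably coexpressing TLR9 and MyD88 fusions from primary screen; compound exposure lasted 48 hours before viability readout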
Beta-galactosidase = Beta-galactosidase (Escherichia coli, UniProt Q8VNN2); assay type: functional
Beta-galactosidase, sequence (Q8VNN2 whole entry): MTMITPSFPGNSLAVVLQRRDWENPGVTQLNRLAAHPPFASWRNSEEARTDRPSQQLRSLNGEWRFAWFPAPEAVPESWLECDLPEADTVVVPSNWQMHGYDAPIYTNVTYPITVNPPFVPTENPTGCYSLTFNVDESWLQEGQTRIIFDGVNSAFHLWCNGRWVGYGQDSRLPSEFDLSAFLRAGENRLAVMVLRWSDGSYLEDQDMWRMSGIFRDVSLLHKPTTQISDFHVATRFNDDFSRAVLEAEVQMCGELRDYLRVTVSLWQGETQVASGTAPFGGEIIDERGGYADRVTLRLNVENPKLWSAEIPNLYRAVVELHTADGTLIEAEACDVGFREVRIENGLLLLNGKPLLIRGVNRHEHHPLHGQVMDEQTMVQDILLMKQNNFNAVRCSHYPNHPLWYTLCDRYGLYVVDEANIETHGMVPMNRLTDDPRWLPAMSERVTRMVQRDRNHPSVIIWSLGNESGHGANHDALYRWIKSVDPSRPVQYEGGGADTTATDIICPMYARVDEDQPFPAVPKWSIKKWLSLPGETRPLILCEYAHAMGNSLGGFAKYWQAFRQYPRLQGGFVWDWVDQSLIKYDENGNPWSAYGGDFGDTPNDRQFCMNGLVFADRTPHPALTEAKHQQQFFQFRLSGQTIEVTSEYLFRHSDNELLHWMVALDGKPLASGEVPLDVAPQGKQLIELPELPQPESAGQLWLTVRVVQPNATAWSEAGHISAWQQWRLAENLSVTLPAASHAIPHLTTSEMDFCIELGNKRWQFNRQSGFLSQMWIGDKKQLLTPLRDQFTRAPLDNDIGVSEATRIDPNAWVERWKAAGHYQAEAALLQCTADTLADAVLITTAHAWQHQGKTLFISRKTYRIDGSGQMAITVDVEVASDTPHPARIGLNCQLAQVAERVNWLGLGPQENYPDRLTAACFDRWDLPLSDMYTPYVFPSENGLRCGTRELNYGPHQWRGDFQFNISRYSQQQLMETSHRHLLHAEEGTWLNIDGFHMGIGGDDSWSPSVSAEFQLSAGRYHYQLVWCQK

T2 sequence (P41145 whole entry): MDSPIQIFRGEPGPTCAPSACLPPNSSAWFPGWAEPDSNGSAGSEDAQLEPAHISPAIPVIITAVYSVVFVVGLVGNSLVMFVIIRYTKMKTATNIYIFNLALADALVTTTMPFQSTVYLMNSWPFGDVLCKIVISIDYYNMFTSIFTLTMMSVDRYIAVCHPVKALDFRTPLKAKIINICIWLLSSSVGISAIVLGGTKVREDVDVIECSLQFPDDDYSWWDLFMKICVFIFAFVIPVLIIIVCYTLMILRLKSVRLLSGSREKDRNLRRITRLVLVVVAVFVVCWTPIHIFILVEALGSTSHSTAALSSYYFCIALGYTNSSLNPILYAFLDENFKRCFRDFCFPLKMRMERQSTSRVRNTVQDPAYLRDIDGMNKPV
T1 sequence (Q9HC97 whole entry): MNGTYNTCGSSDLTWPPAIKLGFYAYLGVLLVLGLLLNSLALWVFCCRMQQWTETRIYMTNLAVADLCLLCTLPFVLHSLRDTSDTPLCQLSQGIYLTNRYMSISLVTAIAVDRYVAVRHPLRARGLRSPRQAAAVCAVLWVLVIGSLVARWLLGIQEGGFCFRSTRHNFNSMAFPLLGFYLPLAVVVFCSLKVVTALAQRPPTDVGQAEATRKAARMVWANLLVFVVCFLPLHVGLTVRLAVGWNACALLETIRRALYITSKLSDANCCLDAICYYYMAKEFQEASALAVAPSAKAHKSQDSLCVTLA
Delta-type opioid receptor, sequence (P41143 whole entry): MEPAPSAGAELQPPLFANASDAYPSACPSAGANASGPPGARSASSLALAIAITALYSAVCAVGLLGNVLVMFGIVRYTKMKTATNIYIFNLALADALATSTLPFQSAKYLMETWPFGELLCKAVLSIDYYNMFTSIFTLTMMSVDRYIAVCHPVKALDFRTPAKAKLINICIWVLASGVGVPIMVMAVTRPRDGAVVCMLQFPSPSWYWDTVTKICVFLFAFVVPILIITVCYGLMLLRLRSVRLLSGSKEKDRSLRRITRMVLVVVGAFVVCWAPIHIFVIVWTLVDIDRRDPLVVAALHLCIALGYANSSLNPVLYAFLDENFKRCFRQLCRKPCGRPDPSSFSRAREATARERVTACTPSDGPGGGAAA
Beta Lactamase, sequence (Q932Y6 whole entry, the tested form may be a part): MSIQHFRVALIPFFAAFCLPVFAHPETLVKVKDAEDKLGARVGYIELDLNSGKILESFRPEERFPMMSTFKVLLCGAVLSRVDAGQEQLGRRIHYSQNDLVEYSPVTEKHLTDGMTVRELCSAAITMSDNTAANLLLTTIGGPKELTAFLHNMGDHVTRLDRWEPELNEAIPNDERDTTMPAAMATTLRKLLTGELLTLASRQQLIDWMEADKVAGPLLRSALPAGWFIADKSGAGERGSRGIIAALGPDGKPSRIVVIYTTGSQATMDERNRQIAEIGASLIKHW
Mu-type opioid receptor, sequence (P35372 whole entry): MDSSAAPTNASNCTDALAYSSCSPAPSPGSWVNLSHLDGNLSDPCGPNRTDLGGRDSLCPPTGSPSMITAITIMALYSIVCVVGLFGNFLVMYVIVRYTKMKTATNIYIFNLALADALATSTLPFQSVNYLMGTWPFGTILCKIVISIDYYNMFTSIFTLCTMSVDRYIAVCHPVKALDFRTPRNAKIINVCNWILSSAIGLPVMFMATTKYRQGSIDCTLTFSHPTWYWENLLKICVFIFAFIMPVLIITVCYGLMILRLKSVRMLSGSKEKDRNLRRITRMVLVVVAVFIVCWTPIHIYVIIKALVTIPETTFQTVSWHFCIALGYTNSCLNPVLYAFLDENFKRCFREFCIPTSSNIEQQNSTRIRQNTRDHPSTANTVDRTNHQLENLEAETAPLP
G-protein coupled receptor 55, sequence (Q9Y2T6 whole entry): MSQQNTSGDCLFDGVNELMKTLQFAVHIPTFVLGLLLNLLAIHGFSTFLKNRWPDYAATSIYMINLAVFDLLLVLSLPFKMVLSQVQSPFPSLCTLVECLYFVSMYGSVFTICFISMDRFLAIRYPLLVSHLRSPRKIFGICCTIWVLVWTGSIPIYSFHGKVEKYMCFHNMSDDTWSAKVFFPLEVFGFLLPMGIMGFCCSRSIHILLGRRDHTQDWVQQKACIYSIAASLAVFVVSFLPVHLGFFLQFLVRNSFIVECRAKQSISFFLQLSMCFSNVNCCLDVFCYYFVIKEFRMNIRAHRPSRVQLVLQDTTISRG

IC50 [1]: 4.11 µM (active)
IC50 [2]: 1.25 µM (active)
IC50 [3]: > 32 µM (inactive)
SMILES: CNC(=S)N/N=C/c1c(C(=O)OC)cnn1-c1ccc(Cl)cc1

IC50 [4]: > 20 µM (inactive)
IC50 [5]: > 32 µM (inactive)
IC50 (Mu-type opioid receptor): > 32 µM (inactive)
IC50 [6]: > 32 µM (inactive)
SMILES: Cc1cccc(S(=O)(=O)NCc2ccc(C(=O)NCCN3Cc4ccccc4C3)cc2)c1

SMILES: N#CC(C#N)=C1C=CC=CN1/C(=C\c1ccco1)C(=O)c1ccccc1
IC50 [7]: 18.9 µM
IC50 [8]: 4.86 µM (active)
IC50 (Beta Lactamase): 15.9 µM (inactive)
IC50 [9]: 1.02 µM (active)
IC50 (Aminopeptidase N): 65.2 µM (active)
AC50 (INS1): 7.4 µM (active)
AC50 [10]: 5.46 µM (active)
IC50 (CHO): 1.64 µM (active)
EC50 (Beta-galactosidase): > 31.5 µM (inactive)
